Reference: publication PMC11586601 (Journal of Inherited Metabolic Disease, 2024)

T1: cHuNAGS (linker-cleaved) (Homo sapiens, UniProt Q8N159)
T1 sequence (Q8N159 95-534): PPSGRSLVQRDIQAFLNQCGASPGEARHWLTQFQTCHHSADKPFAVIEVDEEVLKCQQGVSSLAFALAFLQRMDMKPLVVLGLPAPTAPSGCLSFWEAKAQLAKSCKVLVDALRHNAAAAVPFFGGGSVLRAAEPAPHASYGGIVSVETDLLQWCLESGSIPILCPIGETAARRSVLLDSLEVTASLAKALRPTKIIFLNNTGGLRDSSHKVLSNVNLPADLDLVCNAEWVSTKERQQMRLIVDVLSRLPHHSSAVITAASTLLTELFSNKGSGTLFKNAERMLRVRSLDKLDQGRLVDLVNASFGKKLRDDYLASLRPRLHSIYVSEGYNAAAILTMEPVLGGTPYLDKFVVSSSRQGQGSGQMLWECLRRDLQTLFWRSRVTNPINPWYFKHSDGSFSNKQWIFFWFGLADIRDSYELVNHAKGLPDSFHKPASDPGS

B1: His6-MBP-cHuNAGS chimera (wild-type) (domain or fragment, human)
chain: LEVLFQGPMPPSGRSLVQRDIQAFLNQCGASPGEARHWLTQFQTCHHSADKPFAVIEVDEEVLKCQQGVSSLAFALAFLQRMDMKPLVVLGLPAPTAPSGCLSFWEAKAQLAKSCKVLVDALRHNAAAAVPFFGGGSVLRAAEPAPHASYGGIVSVETDLLQWCLESGSIPILCPIGETAARRSVLLDSLEVTASLAKALRPTKIIFLNNTGGLRDSSHKVLSNVNLPADLDLVCNAEWVSTKERQQMRLIVDVLSRLPHHSSAVITAASTLLTELFSNKGSGTLFKNAERMLRVRSLDKLDQGRLVDLVNASFGKKLRDDYLASLRPRLHSIYVSEGYNAAAILTMEPVLGGTPYLDKFVVSSSRQGQGSGQMLWECLRRDLQTLFWRSRVTNPINPWYFKHSDGSFSNKQWIFFWFGLADIRDSYELVNHAKGLPDSFHKPASDPGS

Key:
[1] = molecular target: cHuNAGS (linker-cleaved) (Homo sapiens, UniProt Q8N159, V350I); assay: biochemical
Chain of cHuNAGS (linker-cleaved) (Homo sapiens, UniProt Q8N159, V350I) (Q8N159 95-534 V350I): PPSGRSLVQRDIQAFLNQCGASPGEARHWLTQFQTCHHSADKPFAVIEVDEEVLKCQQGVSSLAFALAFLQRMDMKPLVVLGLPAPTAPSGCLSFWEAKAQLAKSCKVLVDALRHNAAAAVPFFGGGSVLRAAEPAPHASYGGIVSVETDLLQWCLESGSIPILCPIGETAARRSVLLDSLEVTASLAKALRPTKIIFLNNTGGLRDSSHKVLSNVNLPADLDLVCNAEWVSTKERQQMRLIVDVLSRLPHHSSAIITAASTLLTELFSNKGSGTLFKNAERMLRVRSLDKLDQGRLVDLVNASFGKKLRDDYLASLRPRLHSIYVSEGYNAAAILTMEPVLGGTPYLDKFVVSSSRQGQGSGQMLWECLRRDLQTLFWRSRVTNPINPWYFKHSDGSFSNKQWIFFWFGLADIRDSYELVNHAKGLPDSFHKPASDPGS

[2] = molecular target: T1, cHuNAGS (linker-cleaved); assay: biochemical
[3] = molecular target: the molecule itself; assay: SEC

Row | Molecule | EC50 [1] [µM] | EC50 [2] [µM] | binding result [3]
1 | N=C(N)NCCC[C@H](N)C(=O)O [arginine] | > 4000 | ~20 | –
2 | B1 | – | – | binds
